Entries after “also recorded” stand apart in the source; their conditions may differ. Like-named read-outs stand apart in the source and are kept apart here.
How the values were obtained:
OATP1B3 F555H = conditions: F555H mutation; cited from earlier work
OATP1B1 [1] = conditions: cited from earlier work
OATP1B1 H555F = conditions: H555 F variant; cited from earlier work
OATP1B1 [2] = type: cell-based, human; conditions: HEK293 over-expressing OATP1B1; substrate not specified at the place

O=C(O[C@@H]1Cc2c(O)cc(O)cc2O[C@@H]1c1cc(O)c(O)c(O)c1)c1cc(O)c(O)c(O)c1 [EGCG, epigallocatechin gallate]
EGCG transport by OATP1B3 (OATP1B3 F555H): significantly reduced

C=CC1=C(C)/C(=C/c2[nH]c(Cc3[nH]c(/C=C4\NC(=O)C(C)=C4C=C)c(C)c3CCC(=O)O)c(CCC(=O)O)c2C)NC1=O [bilirubin]
inhibition of and transport by OATP1B1 (OATP1B1 [1]; no reference given): is a natural transport substrate, but does not inhibit transport

CO[C@H]1/C=C/O[C@@]2(C)Oc3c(C)c(O)c4c(O)c(c(/C=N/N5CCN(C)CC5)c(O)c4c3C2=O)NC(=O)/C(C)=C\C=C\[C@H](C)[C@H](O)[C@@H](C)[C@@H](O)[C@@H](C)[C@H](OC(C)=O)[C@@H]1C [rifampicin]
inhibition of and transport by OATP1B1 (OATP1B1 [1]): both inhibits and is transported by OATP1B1

cholecystokinin-8: called an OATP1B1-specific substrate
uptake by OATP1B1 (OATP1B1 H555F): abolished

B1: Sb5: synthetic nanobody (sybody) that binds to OATP1B1 in both its apo and cyclosporine A-bound forms (antibody, V domains shown)
VH: QVQLVESGGGLVQAGGSLRLSCAASGFPVNLSYMHWYRQAPGKEREWVAAISSWGWHTEYADSVKGRFTISRDNAKNTVYLQMNSLKPEDTAVYYCHVRVGRSYFGQGTQVSVSA
inhibition of OATP1B1 substrate transport (OATP1B1 [2]): does not impair the ability of OATP1B1 to transport substrates; also recorded: did not inhibit substrate transport by OATP1B1
